Data published in ChEMBL document CHEMBL2346592, “Arylglycine derivatives as potent transient receptor potential melastatin 8 (TRPM8) antagonists” (Bioorg Med Chem Lett, 2013).

What was measured:
[1] = biological target: Transient receptor potential M8 protein (Canis lupus familiaris, UniProt Q1A7N1); assay: Antagonist activity at dog TRPM8 expressed in HEK293 cells assessed as inhibition of icilin-induced calcium influx incubated for 5 mins prior to icilin induction measured after 5 mins by fluorescence assay; assay type: cell-based
Transient receptor potential M8 protein, sequence (Q1A7N1 whole entry): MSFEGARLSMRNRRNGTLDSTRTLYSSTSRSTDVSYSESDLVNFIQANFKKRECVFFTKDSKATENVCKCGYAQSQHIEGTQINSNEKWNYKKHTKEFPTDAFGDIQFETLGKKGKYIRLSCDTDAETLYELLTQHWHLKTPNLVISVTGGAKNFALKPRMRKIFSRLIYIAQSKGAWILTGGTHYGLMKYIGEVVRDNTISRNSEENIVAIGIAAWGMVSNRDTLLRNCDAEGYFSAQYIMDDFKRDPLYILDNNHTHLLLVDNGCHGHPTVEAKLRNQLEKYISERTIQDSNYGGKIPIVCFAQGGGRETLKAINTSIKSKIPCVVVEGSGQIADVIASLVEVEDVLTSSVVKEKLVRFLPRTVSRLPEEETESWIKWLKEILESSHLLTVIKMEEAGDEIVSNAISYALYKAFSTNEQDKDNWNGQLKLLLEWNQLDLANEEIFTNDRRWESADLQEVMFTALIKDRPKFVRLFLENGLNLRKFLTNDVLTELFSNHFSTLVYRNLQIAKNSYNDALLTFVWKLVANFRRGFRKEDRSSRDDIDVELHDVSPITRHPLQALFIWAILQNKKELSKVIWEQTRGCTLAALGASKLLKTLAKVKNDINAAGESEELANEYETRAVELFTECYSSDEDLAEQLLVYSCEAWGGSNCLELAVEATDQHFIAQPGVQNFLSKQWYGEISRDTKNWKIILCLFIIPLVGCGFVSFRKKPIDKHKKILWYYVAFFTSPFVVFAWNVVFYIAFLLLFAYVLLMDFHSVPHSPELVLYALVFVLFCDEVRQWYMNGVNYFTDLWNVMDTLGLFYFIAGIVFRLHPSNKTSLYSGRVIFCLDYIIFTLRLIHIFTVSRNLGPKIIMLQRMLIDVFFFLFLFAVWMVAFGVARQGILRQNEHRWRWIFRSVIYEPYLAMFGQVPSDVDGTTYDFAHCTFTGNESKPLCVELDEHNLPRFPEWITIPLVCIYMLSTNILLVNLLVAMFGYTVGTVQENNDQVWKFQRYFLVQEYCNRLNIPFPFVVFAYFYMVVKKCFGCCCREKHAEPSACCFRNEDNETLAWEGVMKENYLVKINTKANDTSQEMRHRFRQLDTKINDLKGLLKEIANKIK

Rattus norvegicus = assay: Anti-cold hypersensitive activity in rat assessed as inhibition of icilin-induced wet-dog shaking at 30 mg/kg, po measured for 10 mins relative to control; assay type: functional

Compound | IC50 [1] [nM] | inhibition in vivo at 30 mg/kg (Rattus norvegicus) [%]
O=C([C@H](Nc1ccccc1F)c1ccc(C(F)(F)F)cc1)N1CCC[C@H]1c1ccccc1F | 45 | 
O=C([C@@H](Nc1ccccc1F)c1ccc(C(F)(F)F)cc1)N1CCC[C@H]1c1ccccc1F | 6 | 99
O=C(C(Nc1ccccc1F)c1ccc(C(F)(F)F)cc1)N1CCC[C@@H]1c1ccccc1 (stereo partly drawn) | 43 | 
O=C(O)c1ccc(-c2ccc(C(Nc3ccccc3F)C(=O)N3CCC[C@H]3c3ccccc3F)cc2)cc1 (mixture of isomers) | 56 | 
O=C(C(Nc1ccccc1F)c1ccc(Br)cc1)N1CCC[C@H]1c1ccccc1F (mixture of isomers) | 9 | 
O=C(C(Nc1ccccc1F)c1cc2ccccc2s1)N1CCC[C@H]1c1ccccc1F (mixture of isomers) | 3 | 
O=C(C(Nc1ccccc1F)c1ccc(C(F)(F)F)cc1)N1CCC[C@@H]1c1ccccc1F (mixture of isomers) | 44 | 
O=C(C(Nc1ccccc1F)c1ccc(C(F)(F)F)cc1)N1CCC[C@H]1c1ccccc1 (mixture of isomers) | 5 | 56
O=C(O)c1ccc(C2CCCN2C(=O)C(Nc2ccccc2F)c2cc3ccccc3s2)cc1 (racemic) | 41 | 
O=C(O)c1cccc(C2CCCN2C(=O)C(Nc2ccccc2F)c2ccc(C(F)(F)F)cc2)c1 (racemic) | 40 | 
O=C(C(Nc1ccccc1F)c1ccc(C(F)(F)F)cc1)N1CCCC1c1ccccc1F (racemic) | 7 | 

Continued by falling IC50 [1], values first:

IC50 [1] [nM] | Compound | inhibition in vivo at 30 mg/kg (Rattus norvegicus) [%]
168 | O=C(C(Nc1ccccc1)c1ccc(C(F)(F)F)cc1)N1CCC[C@@H]1c1ccccc1Cl (mixture of isomers) | 
41 | O=C(C(Nc1ccccc1)c1ccc(C(F)(F)F)cc1)N1CCC[C@H]1c1ccccc1Cl (mixture of isomers) | 
25 | O=C(C(Nc1ccccc1F)c1ccc(-c2ccncc2)cc1)N1CCCC1c1ccccc1F (racemic) | 
17 | O=C(C(Nc1ccccc1F)c1ccc(C(F)(F)F)cc1)N1CCC[C@H]1c1ccccc1Cl (mixture of isomers) | 79
11 | O=C(C(Nc1ccccc1F)c1ccc(C(F)(F)F)cc1)N1CCCC1c1ccccc1Cl (racemic) | 
8 | O=C(C(Nc1ccccc1F)c1ccc(C(F)(F)F)cc1)N1CCC[C@H]1c1ccccc1F (mixture of isomers) | 63
7 | O=C(C(Nc1ccccc1F)c1ccc(-c2cccnc2)cc1)N1CCC[C@H]1c1ccccc1F (mixture of isomers) | -13
